“And” between values parts separate entries of the source, which are not always exact repeats. Identical values can stand only once.

The record followed here is BindingDB's records for doi:10.1021/acs.biochem.5b00822 (The University of Kansas Medical Center, 2015).

Holding throughout (settings): 25 °C
In assay [1] the target is T1, Phosphoenolpyruvate carboxykinase, cytosolic [GTP] (Rattus norvegicus, UniProt P07379).
T1 sequence (P07379 whole entry): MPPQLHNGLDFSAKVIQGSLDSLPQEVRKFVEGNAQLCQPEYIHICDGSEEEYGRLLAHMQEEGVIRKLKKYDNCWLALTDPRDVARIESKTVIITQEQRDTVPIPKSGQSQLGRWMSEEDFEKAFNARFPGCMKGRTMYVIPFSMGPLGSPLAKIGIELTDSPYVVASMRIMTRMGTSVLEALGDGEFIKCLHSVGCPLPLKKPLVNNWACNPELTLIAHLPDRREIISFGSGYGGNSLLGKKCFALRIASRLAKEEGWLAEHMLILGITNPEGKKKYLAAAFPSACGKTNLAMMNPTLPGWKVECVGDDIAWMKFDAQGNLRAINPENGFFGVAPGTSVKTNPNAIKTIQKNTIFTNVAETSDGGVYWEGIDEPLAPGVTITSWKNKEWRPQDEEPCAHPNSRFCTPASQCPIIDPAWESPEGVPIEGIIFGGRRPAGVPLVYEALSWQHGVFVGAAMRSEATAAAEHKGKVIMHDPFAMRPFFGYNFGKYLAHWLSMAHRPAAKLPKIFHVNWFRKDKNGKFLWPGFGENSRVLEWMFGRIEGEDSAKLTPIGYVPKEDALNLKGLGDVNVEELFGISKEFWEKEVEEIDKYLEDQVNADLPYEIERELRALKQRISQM
As to the kind of experiment: PEPCK Assay (PEP to OAA). How it is done:
(§1) OAA/PEP binding site. When the enzyme was assayed in the direction of PEP →OAA, the standard reaction mixture contained 50 mM HEPES (pH 7.5), 2mMMnCl2, 10mMDTT, 0.5mMGDP, 2mMPEP, 187.5 μM NADH, 50 mM KHCO3, and 11 units of MDH. The reaction proceeded at 25 °C and was started with the addition of PEPCK (∼1−2 μg). Mutants were assayed as previously described with the exception that ~30 μg of enzyme was used to initiate the assay.14 Inhibition assays with MPA were conducted with varying concentrations of PEP with a fixed GDP concentration of 500 or 25 μM. Inhibition assays against GDP were conducted at a fixed concentration of PEP of 2 or 5 mM.

The target of assay [2] is T1, Phosphoenolpyruvate carboxykinase, cytosolic [GTP]. Nature of the assay: PEPCK Assay (OAA to PEP). How it is done: (§2) OAA/PEP binding site. The activity of PEPCK in the direction from OAA to PEP was assayed with 50 mM HEPES (pH 7.5), 10 mM DTT, 4 mM MgCl2, 0.5 mM GTP, 1 mM ADP, 187.5 μM NADH, 45 units of LDH, 50 μg of PK, 0.2 mM MnCl2, and (∼1−2 μg) of PEPCK. The assay mixture was incubated for 5 min at 25 °C and the reaction started with the addition of OAA to a final concentration of 350 μM. A second reaction without PEPCK was run simultaneously to account for the spontaneous decarboxylation of OAA. Inhibition assays with MPA were conducted under both variable OAA and variable GTP concentrations. When the GTP concentration was varied, MgCl2 concentrations were also varied to keep a constant 4:1 metal:nucleotide ratio.

Assay [3] shares this target. Nature of the assay: PEPCK Assay (OAA to PEP-allosteric). Here is the method: as §2, with “Allosteric” for “OAA/PEP”
Assay [4] has the same target. Nature of the assay: PEPCK Assay (PEP to OAA-allosteric). How it is done: as §1, with “Allosteric” for “OAA/PEP”

With `O=C(O)c1ncccc1S` [3-Mercaptopicolinic acid (MPA)], the Ki (commonly a dissociation constant, usually derived from enzyme kinetics or from competition with a known ligand) was 83 µM and 37 µM in assay [1]; 45 µM in assay [2]; 121 µM in assay [3]; 180 µM and 83 µM in assay [4].
